Measured values reported in patent US12336981B2, “Compounds and compositions for the inhibition of NAMPT” (Valo Health, Inc., priority 2010, dated 2025).
Like-named read-outs stand apart in the source and are kept apart here.

Experiments:
NAMPT = target: T1, NAMPT (Homo sapiens, UniProt P43490); test: Biochemical inhibition assay: NAMPT enzymatic reaction, NMN quantified by mass spectrometry; details: read-out: Biochem IC50
T1 construct: His tag; host or cells: E. coli
Outline: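 Inhibition of E. coli-expressed His-tagged human NAMPT, measured as NMN formation by mass spectrometry after a 30 min room-temperature reaction containing 1 μM NAM, 100 μM PRPP and 2.5 mM ATP.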

A2780 cells = test: In-vitro cell proliferation assay (SRB), A2780 cells; format: cell-based; details: Homo sapiens, A2780, 72 h, A2780 cells, 72 hours, read-out: A2780 IC50
Outline: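 Cells were plated overnight at 37° C., 5% CO2, then exposed to serially diluted compounds (0.1% DMSO final) for 72 hours. Viable cells were measured by sulforhodamine B staining after TCA fixation, read at 570 nm; media-only background was subtracted before % inhibition was calculated.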

T1 sequence (P43490 whole entry): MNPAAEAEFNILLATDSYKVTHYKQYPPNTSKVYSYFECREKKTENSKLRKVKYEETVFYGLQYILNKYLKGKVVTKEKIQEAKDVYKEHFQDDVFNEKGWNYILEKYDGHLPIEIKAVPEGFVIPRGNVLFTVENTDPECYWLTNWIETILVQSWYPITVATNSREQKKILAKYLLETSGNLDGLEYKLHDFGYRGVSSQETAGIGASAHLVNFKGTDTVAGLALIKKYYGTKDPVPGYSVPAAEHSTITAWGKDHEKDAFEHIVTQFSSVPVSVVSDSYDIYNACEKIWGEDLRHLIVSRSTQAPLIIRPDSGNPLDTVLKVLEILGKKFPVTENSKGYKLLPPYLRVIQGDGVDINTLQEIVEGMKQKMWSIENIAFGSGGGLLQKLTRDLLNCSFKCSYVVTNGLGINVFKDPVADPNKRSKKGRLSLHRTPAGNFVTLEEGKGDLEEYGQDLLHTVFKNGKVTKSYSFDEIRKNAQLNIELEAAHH

| Compound | IC50 (NAMPT; NAMPT enzymatic assay) | IC50 (A2780 cells; SRB) | IC50 (NAMPT; NAMPT enzymatic reaction) | IC50 (A2780 cells; SRB assay) |
| --- | --- | --- | --- | --- |
| Cc1ccc(Cl)c(S(=O)(=O)c2ccc(CNC(=O)c3cc4ccncc4s3)cc2)c1F | 7.7 nM | 6.8 nM |  |  |
| CCc1ccccc1S(=O)(=O)c1ccc(CNC(=O)c2cc3ccncc3o2)cc1 [N-({4-[(2-ethylbenzene)sulfonyl]phenyl}methyl)furo[2,3-c]pyridine-2-carboxamide] |  | 12.9 nM | 5.4 nM |  |
| Cc1ccc(S(=O)(=O)c2ccc(CNC(=O)c3cc4cnccc4[nH]3)cc2)c(C)c1 [N-({4-[(2,4-dimethylbenzene)sulfonyl]phenyl}methyl)-1H-pyrrolo[3,2-c]pyridine-2-carboxamide] | 21 nM | 12 nM |  |  |
| O=C(NCc1ccc(S(=O)(=O)N2CCCCC2)cc1)c1cc2cnccc2o1 [N-{[4-(piperidine-1-sulfonyl)phenyl]methyl}furo[3,2-c]pyridine-2-carboxamide] |  |  | 17 nM | 286 nM |
| O=C(NCc1ccc(S(=O)(=O)c2ccc(C3CCCCC3)cc2)cc1)c1ccc2nccn2c1 |  | 11.7 nM | 17.8 nM |  |
| Cc1ccc(Cl)cc1S(=O)(=O)c1ccc(CNC(=O)c2cc3ccncc3s2)cc1 |  | 6.6 nM | 4.8 nM |  |
| Cn1cc(S(=O)(=O)c2ccc(CNC(=O)c3cc4ccncc4o3)cc2)cn1 [N-{[4-(1-methyl-1H-pyrazole-4-sulfonyl)phenyl]methyl}furo[2,3-c]pyridine-2-carboxamide] | 16.8 nM | 65.4 nM |  |  |
| CN1CCN(c2ccc(S(=O)(=O)c3ccc(CNC(=O)c4cc5cnccc5[nH]4)cc3)cn2)CC1 [N-({4-[6-(4-methylpiperazin-1-yl)pyridine-3-sulfonyl]phenyl}methyl)-1H-pyrrolo[3,2-c]pyridine-2-carboxamide] | 6 nM | 0.6 nM |  |  |
| O=C(NCc1ccc(S(=O)(=O)c2cc(F)ccc2F)cc1)c1cnc2[nH]ncc2c1 |  | 392 nM | 100 to 1000 nM |  |
| CCOc1cc(Cl)ccc1S(=O)(=O)c1ccc(CNC(=O)c2cnc3nccn3c2)cc1 |  | 4.5 nM | 2 nM |  |
| O=C(NCc1ccc(S(=O)(=O)c2ccc(OC(F)(F)F)c(F)c2)cc1)c1ccc2nccn2c1 | 8.4 nM | 6.3 nM |  |  |
| O=C(NCc1ccc(S(=O)(=O)c2ccccc2)cc1)c1cc(-c2cccnc2)no1 [N-{[4-(benzenesulfonyl)phenyl]methyl}-3-(pyridin-3-yl)-1,2-oxazole-5-carboxamide] |  |  | 33 nM | > 30000 nM |
| O=C(NCc1ccc(S(=O)(=O)c2cccc(C(F)(F)F)c2Cl)cc1)c1cc2cnccc2[nH]1 | 36.4 nM | 8.8 nM |  |  |
| Cc1ccc(S(=O)(=O)c2ccc(CNC(=O)c3cc4ccncc4o3)cc2)cc1 [N-({4-[(4-methylbenzene)sulfonyl]phenyl}methyl)furo[2,3-c]pyridine-2-carboxamide] |  | 6 nM | 121 nM |  |
| Cn1ncc2cccc(S(=O)(=O)c3ccc(CNC(=O)c4ccc5nccn5c4)cc3)c21 [N-{[4-(1-methyl-1H-indazole-7-sulfonyl)phenyl]methyl}imidazo[1,2-a]pyridine-6-carboxamide] | 28.7 nM | 27.5 nM |  |  |
| Cc1ccc(S(=O)(=O)c2ccc(CNC(=O)c3cnc4nccn4c3)cc2)cc1 |  | 19.4 nM | 4.3 nM |  |
| Cc1ccc(S(=O)(=O)c2ccc(CNC(=O)c3ccc4nccn4c3)cc2)c(Cl)c1 |  | 0.9 nM | 1.1 nM |  |
| Cc1cc(S(=O)(=O)c2ccc(CNC(=O)c3cc4ccncc4s3)cc2)c(C)cc1F [N-({4-[(4-fluoro-2,5-dimethylbenzene)sulfonyl]phenyl}methyl)thieno[2,3-c]pyridine-2-carboxamide] |  | 13.6 nM | 4.2 nM |  |
| O=C(NCc1ccc(S(=O)(=O)c2cccc(OCC(F)(F)F)c2)cc1)c1ccc2nccn2c1 | 15 nM | 5.9 nM |  |  |
| Cc1cc(C(F)(F)F)ccc1S(=O)(=O)c1ccc(CNC(=O)c2cnc3nccn3c2)cc1 | 7.1 nM | 51.1 nM |  |  |
| N#Cc1cccc(S(=O)(=O)c2ccc(CNC(=O)c3cc4ccncc4s3)cc2)c1 |  | 5.6 nM | 3.5 nM |  |
| O=C(NCc1ccc(S(=O)(=O)c2cccc(Cl)c2)cc1)c1cc2ncccc2[nH]1 |  | 13 nM | 3.9 nM |  |
